# Laboratory results as given in patent US20220402882A1, “HERBICIDAL COMPOUNDS” (SYNGENTA CROP PROTECTION AG, priority 2019, published 2022).
# Key:
# [1] = system: Ipomoea hederacea (IPOHE); assay: Post-emergence glasshouse herbicide test; format: in vivo; conditions: 125 g/h, evaluated after 13 days
# How it was run: (§1)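 Plants grown in standard soil in pots in a glasshouse (24/16 °C day/night, 14 h light, 65% humidity) were sprayed 1 day after sowing (pre-emergence) or after 8 days (post-emergence) at 125 g/h unless otherwise indicated. Percentage damage was assessed after 13 days and scored on a five-point scale (5=80-100%, 1=0-19%).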
# [2] = system: Echinochloa crus-galli (ECHCG); assay: Post-emergence glasshouse herbicide test; format: in vivo; conditions: 125 g/h, evaluated after 13 days
# How it was run: as §1
# [3] = system: Abutilon theophrasti (ABUTH); assay: Post-emergence glasshouse herbicide test; format: in vivo; conditions: 125 g/h, evaluated after 13 days
# How it was run: as §1
# [4] = system: Amaranthus retoflexus (AMARE); assay: Post-emergence glasshouse herbicide test; format: in vivo; conditions: 125 g/h, evaluated after 13 days
# How it was run: as §1
# Setaria faberi (SETFA) [5] = assay: Post-emergence glasshouse herbicide test; format: in vivo; conditions: 125 g/h, evaluated after 13 days
# How it was run: as §1
# ECHCG = assay: Comparative experiment, POST application; format: in vivo, Echinochloa crus-galli
# Description: (§2) A comparative experiment is conducted to show the advantage provided by the compounds of the present invention. Thus the biological performance of representative compounds […] Compound 4-460 of the type referred to in WO2012/028579. Results are given as (%) phytotoxicity observed.
# AMARE = assay: Comparative experiment, POST application; format: in vivo, Amaranthus retoflexus
# Description: as §2
# IPOHE = assay: Comparative experiment, POST application; format: in vivo, Ipomoea hederacea
# Description: as §2
# [6] = system: Ipomoea hederacea (IPOHE); assay: Pre-emergence glasshouse herbicide test; format: in vivo; conditions: 125 g/h, evaluated after 13 days
# How it was run: as §1
# [7] = system: Echinochloa crus-galli (ECHCG); assay: Pre-emergence glasshouse herbicide test; format: in vivo; conditions: 125 g/h, evaluated after 13 days
# How it was run: as §1
# [8] = system: Abutilon theophrasti (ABUTH); assay: Pre-emergence glasshouse herbicide test; format: in vivo; conditions: 125 g/h, evaluated after 13 days
# How it was run: as §1
# [9] = system: Amaranthus retoflexus (AMARE); assay: Pre-emergence glasshouse herbicide test; format: in vivo; conditions: 125 g/h, evaluated after 13 days
# How it was run: as §1
# Setaria faberi (SETFA) [10] = assay: Pre-emergence glasshouse herbicide test; format: in vivo; conditions: 125 g/h, evaluated after 13 days
# How it was run: as §1
# ABUTH = assay: Comparative experiment, POST application; format: in vivo, Abutilon theophrasti
# Description: as §2
# SETFA = assay: Comparative experiment, POST application; format: in vivo, Setaria faberi
# Description: as §2
# DIGSA = assay: Comparative experiment, POST application; format: in vivo
# Description: as §2
# ZEAMX/maize = assay: Comparative experiment, POST application; format: in vivo; conditions: crop
# Description: as §2
Compound,"percentage damage caused to the plant, IPOHE [1]","percentage damage caused to the plant, ECHCG [2]","percentage damage caused to the plant, ABUTH [3]","percentage damage caused to the plant, AMARE [4]","percentage damage caused to the plant, SETFA (Setaria faberi (SETFA) [5])","(%) phytotoxicity observed, ECHCG (ECHCG; rate 15 g/ha) [%]","(%) phytotoxicity observed, ECHCG (ECHCG; rate 30 g/ha) [%]","(%) phytotoxicity observed, AMARE (AMARE; rate 15 g/ha) [%]","(%) phytotoxicity observed, AMARE (AMARE; rate 30 g/ha) [%]","(%) phytotoxicity observed, IPOHE (IPOHE; rate 15 g/ha) [%]","(%) phytotoxicity observed, IPOHE (IPOHE; rate 30 g/ha) [%]","percentage damage caused to the plant, IPOHE [6]","percentage damage caused to the plant, ECHCG [7]","percentage damage caused to the plant, ABUTH [8]","percentage damage caused to the plant, AMARE [9]","percentage damage caused to the plant, SETFA (Setaria faberi (SETFA) [10])","(%) phytotoxicity observed, ABUTH (ABUTH; rate 15 g/ha) [%]","(%) phytotoxicity observed, ABUTH (ABUTH; rate 30 g/ha) [%]","(%) phytotoxicity observed, SETFA (SETFA; rate 15 g/ha) [%]","(%) phytotoxicity observed, SETFA (SETFA; rate 30 g/ha) [%]",further results
"Cn1nnnc1NC(=O)c1ccc(OC(F)F)c(S(C)(=O)=O)c1Cl [Compound 1.003, 2-chloro-4-(difluoromethoxy)-3-methylsulfonyl-N-(1-methyltetrazol-5-yl)benzamide]",5 (5=80-100%),5 (5=80-100%),5 (5=80-100%),5 (5=80-100%),5 (5=80-100%),90,90,100,100,100,100,1 (1=0-19%),5 (5=80-100%),5 (5=80-100%),5 (5=80-100%),5 (5=80-100%),90,100,80,90,"(%) phytotoxicity observed, DIGSA (DIGSA; rate 15 g/ha): 80%; (%) phytotoxicity observed, DIGSA (DIGSA; rate 30 g/ha): 80%; (%) phytotoxicity observed, ZEAMX (ZEAMX/maize; rate 15 g/ha): 0%; (%) phytotoxicity observed, ZEAMX (ZEAMX/maize; rate 30 g/ha): 0%"
"Cn1nnnc1NC(=O)c1ccc(C(F)(F)F)c(S(C)(=O)=O)c1Cl [Compound 4-640, reference compound]",,,,,,80,90,90,90,90,90,,,,,,90,90,90,90,"(%) phytotoxicity observed, DIGSA (DIGSA; rate 15 g/ha): 80%; (%) phytotoxicity observed, DIGSA (DIGSA; rate 30 g/ha): 80%; (%) phytotoxicity observed, ZEAMX (ZEAMX/maize; rate 15 g/ha): 40%; (%) phytotoxicity observed, ZEAMX (ZEAMX/maize; rate 30 g/ha): 70%"
CCCS(=O)(=O)c1c(OC(F)F)ccc(C(=O)Nc2nnnn2CC)c1Cl [Compound 1.051],4 (4=60-79%),5 (5=80-100%),5 (5=80-100%),5 (5=80-100%),5 (5=80-100%),,,,,,,4 (4=60-79%),5 (5=80-100%),5 (5=80-100%),5 (5=80-100%),5 (5=80-100%),,,,,
"CSc1c(OC(F)(F)C(F)F)ccc(C(=O)Nc2nnnn2C)c1Cl [Compound 1.009, 2-chloro-3-methylsulfanyl-N-(1-methyltetrazol-5-yl)-4-(1,1,2,2-tetrafluoroethoxy)benzamide]",4 (4=60-79%),4 (4=60-79%),4 (4=60-79%),4 (4=60-79%),4 (4=60-79%),,,,,,,3 (3=40-59%),5 (5=80-100%),4 (4=60-79%),5 (5=80-100%),5 (5=80-100%),,,,,
CCS(=O)(=O)c1c(CC(F)(F)F)ccc(C(=O)Nc2nnnn2C)c1C [Compound 1.024],5 (5=80-100%),5 (5=80-100%),5 (5=80-100%),5 (5=80-100%),5 (5=80-100%),,,,,,,5 (5=80-100%),5 (5=80-100%),5 (5=80-100%),5 (5=80-100%),5 (5=80-100%),,,,,
CC[S+]([O-])c1c(OCC(F)(F)F)ccc(C(=O)Nc2nnnn2C)c1C (stereo not drawn) [Compound 1.039],4 (4=60-79%),5 (5=80-100%),5 (5=80-100%),5 (5=80-100%),5 (5=80-100%),,,,,,,4 (4=60-79%),4 (4=60-79%),5 (5=80-100%),5 (5=80-100%),4 (4=60-79%),,,,,
